Here are results for six molecules from PMC6609562, “A new split‐luciferase complementation assay identifies pentachlorophenol as an inhibitor of apoptosome formation” (FEBS Open Bio, 2019).

The subject of assay [1] is T1, apoptosome (Nluc/Apaf-1 + Cluc/Apaf-1, cytochrome c, dATP).
T1 construct: gene APAF1; Apaf-1 XL fused by Gly/Ser linker to firefly luciferase fragments (Nluc 1-416; Cluc 394-550 in legend, 395-550 in methods), expressed in HEK 293, S-100 extract
The assay is described as follows: split-luciferase complementation in S-100 extract. The assay is classed as biochemical, Homo sapiens. The conditions noted are these: 1.6 uM cytochrome c, 1 mM dATP, 25 °C; unreliable (reporter interference). The text has this:
split-luciferase complementation in S-100 extract on apoptosome (Nluc/Apaf-1 + Cluc/Apaf-1, cytochrome c, dATP)

Assay [2] has the same test system. Kind of assay: split-luciferase complementation in S-100 extract. The format is biochemical, Homo sapiens.
In assay [3] the test system is T2, cytochrome c.
T2 construct: gene CYCS
Kind of assay: thermal stability shift, soluble protein by Coomassie SDS-PAGE. To be noted: destabilization at 58 °C, 1 mg/mL cytochrome c. The format is binding.

The target in assay [4] is T3, Cluc-Apaf1 (Apaf-1 XL fused to the C-terminal fragment of firefly luciferase) (human), O14727.
T3 chain: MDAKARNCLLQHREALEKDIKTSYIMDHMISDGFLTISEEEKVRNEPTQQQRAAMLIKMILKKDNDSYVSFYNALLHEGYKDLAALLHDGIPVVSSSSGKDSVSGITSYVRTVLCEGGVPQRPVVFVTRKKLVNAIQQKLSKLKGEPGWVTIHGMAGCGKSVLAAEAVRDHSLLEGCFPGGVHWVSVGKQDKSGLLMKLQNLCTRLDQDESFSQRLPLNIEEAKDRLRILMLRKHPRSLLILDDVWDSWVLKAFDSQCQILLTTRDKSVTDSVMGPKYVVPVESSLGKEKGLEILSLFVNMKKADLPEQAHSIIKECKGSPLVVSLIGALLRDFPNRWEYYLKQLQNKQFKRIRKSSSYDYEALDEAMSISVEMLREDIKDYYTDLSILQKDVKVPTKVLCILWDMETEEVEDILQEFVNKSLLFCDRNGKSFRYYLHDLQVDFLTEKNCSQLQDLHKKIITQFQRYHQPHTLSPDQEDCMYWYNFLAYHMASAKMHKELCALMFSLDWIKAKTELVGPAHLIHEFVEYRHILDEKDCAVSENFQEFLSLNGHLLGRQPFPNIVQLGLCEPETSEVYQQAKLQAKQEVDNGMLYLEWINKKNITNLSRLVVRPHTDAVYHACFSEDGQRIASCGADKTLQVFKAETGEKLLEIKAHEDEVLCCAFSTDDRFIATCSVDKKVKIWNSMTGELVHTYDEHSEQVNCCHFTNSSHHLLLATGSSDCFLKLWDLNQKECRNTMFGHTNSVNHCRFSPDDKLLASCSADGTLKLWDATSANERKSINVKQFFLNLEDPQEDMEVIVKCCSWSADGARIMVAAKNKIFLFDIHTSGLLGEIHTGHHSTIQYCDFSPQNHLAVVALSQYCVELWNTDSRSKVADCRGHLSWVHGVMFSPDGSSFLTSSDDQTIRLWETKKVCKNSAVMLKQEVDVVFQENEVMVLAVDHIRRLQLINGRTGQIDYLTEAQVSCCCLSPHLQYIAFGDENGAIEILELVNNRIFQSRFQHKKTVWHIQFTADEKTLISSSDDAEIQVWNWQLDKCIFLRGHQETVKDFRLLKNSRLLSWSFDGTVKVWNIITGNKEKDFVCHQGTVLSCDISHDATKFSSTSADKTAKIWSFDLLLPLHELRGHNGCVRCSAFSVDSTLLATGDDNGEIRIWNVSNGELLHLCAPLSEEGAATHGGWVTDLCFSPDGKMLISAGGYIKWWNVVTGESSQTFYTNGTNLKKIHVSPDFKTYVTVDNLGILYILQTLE
Kind of assay: split reporter (BiFC, NanoBiT); split firefly luciferase complementation; ice-cold S-100 extracts of Nluc-Apaf1 and Cluc-Apaf1 cells mixed 1:1, with and without 1.6 μM cytochrome c and 1 mM dATP (cytochrome c titrated in one experiment); One-Glo Luciferase Assay System, light read at 25 °C over 15 min. To be noted: remark: other sources report otherwise.

Where two headings read alike, the source gives them in different places.

As to `Clc1nc(Cl)nc(Nc2ccccc2Cl)n1` [Anilazine], the “IC50 (mM) / S. luc” value in assay [1] is given as 2.99 mM.
On to `O=C(Nc1cccc(C(F)(F)F)c1)Nc1cc(Cl)ccc1C(=O)O` [NS3694, 4‐chloro‐2‐[[3‐(trifluoromethyl)phenyl]carbamoylamino]benzoic acid], for which the IC50 in assay [2] (diluted extract, cytochrome c and dATP added, read-out: IC50) is roughly 0.17 mM.
As for `Oc1c(Cl)c(Cl)c(Cl)c(Cl)c1Cl` [Pentachlorophenol], in assay [2] (1.6 uM cytochrome c, 1 mM dATP, 25 °C, site assigned to cytochrome c, read-out: IC50 (mM) / S. luc), the IC50 was 0.17 mM. Further, the EC50 in assay [3] was roughly 600 µM.
Regarding `CN(C)C1CSSSC1` [Thiocyclam], the “IC50 (mM) / S. luc” value in assay [1] came to 0.20 mM.
Regarding `CN(C)C(=S)SSC(=S)N(C)C` [Thiram], the “IC50 (mM) / S. luc” value in assay [1] is 1.38 mM.

B1: Nluc-Apaf1 (Apaf-1 XL fused to the N-terminal fragment of firefly luciferase), O14727-1 1-1248 (natural protein)
chain: MDAKARNCLLQHREALEKDIKTSYIMDHMISDGFLTISEEEKVRNEPTQQQRAAMLIKMILKKDNDSYVSFYNALLHEGYKDLAALLHDGIPVVSSSSGKDSVSGITSYVRTVLCEGGVPQRPVVFVTRKKLVNAIQQKLSKLKGEPGWVTIHGMAGCGKSVLAAEAVRDHSLLEGCFPGGVHWVSVGKQDKSGLLMKLQNLCTRLDQDESFSQRLPLNIEEAKDRLRILMLRKHPRSLLILDDVWDSWVLKAFDSQCQILLTTRDKSVTDSVMGPKYVVPVESSLGKEKGLEILSLFVNMKKADLPEQAHSIIKECKGSPLVVSLIGALLRDFPNRWEYYLKQLQNKQFKRIRKSSSYDYEALDEAMSISVEMLREDIKDYYTDLSILQKDVKVPTKVLCILWDMETEEVEDILQEFVNKSLLFCDRNGKSFRYYLHDLQVDFLTEKNCSQLQDLHKKIITQFQRYHQPHTLSPDQEDCMYWYNFLAYHMASAKMHKELCALMFSLDWIKAKTELVGPAHLIHEFVEYRHILDEKDCAVSENFQEFLSLNGHLLGRQPFPNIVQLGLCEPETSEVYQQAKLQAKQEVDNGMLYLEWINKKNITNLSRLVVRPHTDAVYHACFSEDGQRIASCGADKTLQVFKAETGEKLLEIKAHEDEVLCCAFSTDDRFIATCSVDKKVKIWNSMTGELVHTYDEHSEQVNCCHFTNSSHHLLLATGSSDCFLKLWDLNQKECRNTMFGHTNSVNHCRFSPDDKLLASCSADGTLKLWDATSANERKSINVKQFFLNLEDPQEDMEVIVKCCSWSADGARIMVAAKNKIFLFDIHTSGLLGEIHTGHHSTIQYCDFSPQNHLAVVALSQYCVELWNTDSRSKVADCRGHLSWVHGVMFSPDGSSFLTSSDDQTIRLWETKKVCKNSAVMLKQEVDVVFQENEVMVLAVDHIRRLQLINGRTGQIDYLTEAQVSCCCLSPHLQYIAFGDENGAIEILELVNNRIFQSRFQHKKTVWHIQFTADEKTLISSSDDAEIQVWNWQLDKCIFLRGHQETVKDFRLLKNSRLLSWSFDGTVKVWNIITGNKEKDFVCHQGTVLSCDISHDATKFSSTSADKTAKIWSFDLLLPLHELRGHNGCVRCSAFSVDSTLLATGDDNGEIRIWNVSNGELLHLCAPLSEEGAATHGGWVTDLCFSPDGKMLISAGGYIKWWNVVTGESSQTFYTNGTNLKKIHVSPDFKTYVTVDNLGILYILQTLE
As to B1, the EC50 of cytochrome c for split luciferase activity in assay [4] amounted to 0.15 µM.
